Test [1] concerns the target T1, human GPCR sphingosine 1-phosphate receptor 2 (S1PR2) (Homo sapiens, UniProt O95136).
T1 construct: host or cells: CHO
Kind of test: S1P2 antagonist assay (Ca2+ flux, S1P at EC80). Type of test: cell-based. The settings on record: CHO-S1PR2 cells, highest concentration 20 μM. The procedure, abridged: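 CHO cells stably overexpressing human S1PR2, serum-starved 1 h and loaded with Fluo8 dye, were read for 3 min after compound addition, then stimulated with S1P at EC80 after 15 min at 37 °C. Top concentration 20 μM in a 10-point 1/3 series; Ca2+ fluorescence ratio normalized to vehicle and S1P EC80, giving EC50.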

Test [2] has as its target T2, human GPCR sphingosine 1-phosphate receptor 1 (S1PR1) (Homo sapiens, UniProt P21453).
T2 construct: host or cells: CHO
Put plainly: S1PR1 selectivity assay (Ca2+ flux, antagonist). In kind it is cell-based. The following applies: S1P1 antagonist EC50, CHO cells overexpressing human S1PR1 and Gq protein. An outline of the steps: (§1)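 CHO cells stably overexpressing human S1PR1 or S1PR5 with Gq were preincubated with compound 15 min at 37 °C, then stimulated with S1P at EC80 (S1PR1) or an S1PR5-specific agonist (S1PR5). Ca2+ fluorescence was read for 3 min; 10-point 1/3 dilutions from 20 μM final, normalized to vehicle and EC80 trigger, gave EC50.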
A general note: A change in cytosolic calcium serves as a functional read-out for many receptors and channels.

For test [3], the target named is T3, human GPCR sphingosine 1-phosphate receptor 5 (S1PR5) (Homo sapiens, UniProt Q9H228).
T3 construct: host or cells: CHO
T3 sequence (Q9H228 whole entry): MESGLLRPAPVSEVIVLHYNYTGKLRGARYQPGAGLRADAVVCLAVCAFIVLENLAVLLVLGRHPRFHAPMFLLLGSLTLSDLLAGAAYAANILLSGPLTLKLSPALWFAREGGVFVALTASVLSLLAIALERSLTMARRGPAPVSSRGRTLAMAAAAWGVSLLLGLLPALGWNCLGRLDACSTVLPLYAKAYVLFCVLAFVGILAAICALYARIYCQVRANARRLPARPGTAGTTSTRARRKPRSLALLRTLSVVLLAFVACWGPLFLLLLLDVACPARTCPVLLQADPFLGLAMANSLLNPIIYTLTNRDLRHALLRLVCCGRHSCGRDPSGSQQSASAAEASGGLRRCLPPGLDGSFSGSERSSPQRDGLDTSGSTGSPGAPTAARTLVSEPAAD
Put plainly: S1PR5 selectivity assay (Ca2+ flux, antagonist, S1PR5 specific agonist trigger). Type of test: cell-based. The settings on record: S1P5 antagonist EC50, CHO cells overexpressing human S1PR5 and Gq protein. An outline of the steps: as §1

Test [4] deals with T4, S1PR2 (Homo sapiens, UniProt O95136).
T4 construct: expressed in transfected cells
T4 sequence (O95136 whole entry): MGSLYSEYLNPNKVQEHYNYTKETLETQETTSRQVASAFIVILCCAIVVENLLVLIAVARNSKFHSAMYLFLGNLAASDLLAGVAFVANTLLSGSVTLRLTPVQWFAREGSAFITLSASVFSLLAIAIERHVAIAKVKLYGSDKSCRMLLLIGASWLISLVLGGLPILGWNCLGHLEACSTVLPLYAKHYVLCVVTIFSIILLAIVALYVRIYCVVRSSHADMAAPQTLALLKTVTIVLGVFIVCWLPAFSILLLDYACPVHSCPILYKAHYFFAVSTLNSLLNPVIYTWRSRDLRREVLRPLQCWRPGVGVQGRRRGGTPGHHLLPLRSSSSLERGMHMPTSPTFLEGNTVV
Put plainly: GTP-γS binding assay ([35S]GTPγS, S1P at EC80, S1PR2 membranes). In kind it is biochemical. The following applies: membranes from stable cell line over expressing S1PR2, read-out: S1PR2 EC. An outline of the steps: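 Compounds tested against S1P at its EC80 on membranes (2.5 μg/well) from a stable S1PR2-overexpressing line, pre-incubated with 1 μM GDP 15 min at 4 °C. Buffer: 20 mM Tris pH 7.5, 10 mM MgCl2, 100 mM NaCl, 0.1% fatty-acid-free BSA, 50 ug/ml saponin. Incubated 4 h at room temperature; [35S]GTPγS binding read by WGA SPA beads.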
Background: Binding of GTPγS marks nucleotide exchange on a G protein.

For test [5], the system named is HFL-1 cells. Kind of test: IL8 assay (S1P induced IL-8 production). The following applies: Homo sapiens, HFL1; S1P (1 μM) induced IL-8, HFL-1 cells, without HSA. Type of test: cell-based. The protocol:
(§2) S1P is able to induce cytokines such as IL-8 in a process that is S1PR2 dependent (O'Sullivan et al, 2014; Bruennert et al, 2015). This assay is designed to test inhibitory activity of compounds on S1P induced IL-8 on HFL-1 cells, a human fetal lung fibroblast cell line.
Human Fetal Lung cells (HFL-1) are seeded in 96 well plates in growth medium (F12K+10% heat inactivated FBS+1% Pen/strep). After overnight incubation at 37° C., 5% CO2 cells are refreshed with starvation medium without HSA (F12K+1% FBS+1% Pen/strep). On day three, compounds are added (10 point serial dilution, 30 μM highest concentration, ⅓ dilution, 0.3% DMSO final) and plates are incubated for one hour at 37° C., 5% CO2. Subsequently S1P at 1 μM final concentration is added and plates are incubated for 16 to 24 hours at 37° C., 5% CO2 after which the supernatant was collected. IL-8 levels in the supernatant are determined with the IL-8 ELISA of R&D systems.

Test [6] concerns HFL-1 cells. Kind of test: IL8 assay in the presence of Human Serum Albumin. In kind it is cell-based. The settings on record: HFL1, S1P (5 μM) induced IL-8, HFL-1 cells, with 2% HSA, read-out: HSA IL8 EC50. The protocol:
as §2
To evaluate the influence of plasma protein binding of Sip as well as compound, the S1P induced IL-8 levels were evaluated in presence of 2% Human Serum Albumin (HSA, equivalent to 40% human serum). By adding 2% HSA, which affects both the activity of the compounds as well as the S1P potency, the physiological condition are reproduced and the shift in potency expected under in vivo serum conditions can be measured.
Human Fetal Lung cells (HFL-1) are seeded in 96 well plates in growth medium (F12K+10% heat inactivated FBS+1% Pen/strep). After overnight incubation at 37° C., 5% CO2 cells are refreshed with starvation medium with HSA (F12K+1% FBS+1% Pen/strep+1.95% HSA). On day three, compounds are added (10 point serial dilution, 30 μM highest concentration, 1/3 dilution, 0.3% DMSO final) and plates are incubated for 1 h at 37° C., 5% CO2. Subsequently S1P at 5 μM final concentration is added and plates are incubated for 16 to 24 h at 37° C., 5% CO2 after which the supernatant was collected. IL-8 levels in the supernatant are determined with the IL-8 ELISA of R&D systems.

The values that follow come from patent publication US20190388421A1, “NOVEL COMPOUNDS AND PHARMACEUTICAL COMPOSITIONS THEREOF FOR THE TREATMENT OF FIBROSIS” (Galapagos NV, priority 2016, published 2019).

A value given as a limit tells only on which side of the number the result lay.

T1 sequence (O95136 whole entry): as above
T2 sequence (P21453 whole entry): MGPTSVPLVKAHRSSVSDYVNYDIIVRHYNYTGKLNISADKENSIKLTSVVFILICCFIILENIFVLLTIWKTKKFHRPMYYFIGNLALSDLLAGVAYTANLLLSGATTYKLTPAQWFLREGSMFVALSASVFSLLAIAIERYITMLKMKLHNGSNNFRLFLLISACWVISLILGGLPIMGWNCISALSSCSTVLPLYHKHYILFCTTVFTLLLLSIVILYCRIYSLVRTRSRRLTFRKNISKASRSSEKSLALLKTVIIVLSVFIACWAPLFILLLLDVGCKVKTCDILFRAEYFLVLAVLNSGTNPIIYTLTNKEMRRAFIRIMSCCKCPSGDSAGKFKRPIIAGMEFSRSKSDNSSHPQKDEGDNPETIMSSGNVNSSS

Consider `CCOc1nc(Cl)cc(NC(=O)NCc2cc(C)c(-c3cn(C)nc3C(F)(F)F)nn2)n1` [Compound 38, 1-(6-chloro-2-ethoxy-pyrimidin-4-yl)-3-[[5-methyl-6-[1-methyl-3-(trifluoromethyl)pyrazol-4-yl]pyridazin-3-yl]methyl]urea], for which the EC50 in test [1] was 40.2 nM; in test [2], at least 19800 nM; in test [3], at least 19800 nM; in test [4], 109 nM; in test [5], 31.8 nM. The IC50 in test [6] was determined as 198 nM.

As to `CCOc1nc(C)cc(NC(=O)NCc2cc(C)c(N3C[C@@H](C)O[C@@H](C)C3)nn2)c1Cl` [Compound 94, 1-(3-chloro-2-ethoxy-6-methyl-4-pyridyl)-3-[[6-[(2R,6S)-2,6-dimethyl-morpholin-4-yl]-5-methyl-pyridazin-3-yl]methyl]urea], the EC50 in test [1] stood at 27 nM; in test [3], 479 nM; in test [4], 509 nM; in test [5], 102 nM. Also, the IC50 in test [6] was 5950 nM.

For `CCOc1cc(NC(=O)NCc2cc(C)c(N3CC(C)OC(C)C3)nn2)cc(C(F)(F)F)n1` (stereo not drawn) [Compound 87, 1-[[6-(2,6-dimethyl-morpholin-4-yl)-5-methyl-pyridazin-3-yl]methyl]-3-[2-ethoxy-6-(trifluoromethyl)-4-pyridyl]urea], the EC50 in test [1] worked out at 42 nM; in test [2], 1400 nM; in test [3] it was 249 nM; in test [4], 331 nM; in test [5], 82 nM. In addition, in test [6], the IC50 is 2170 nM.

Turning to `Cc1cc(CNC(=O)Nc2cc(OCC3(C(F)(F)F)CC3)nc(C(F)(F)F)c2)nnc1-c1cn(C)nc1C(F)(F)F` [Compound 39, 1-[[5-methyl-6-[1-methyl-3-(trifluoromethyl)pyrazol-4-yl]pyridazin-3-yl]methyl]-3-[2-(trifluoromethyl)-6-[[1-(trifluoromethyl)cyclopropyl]methoxy]-4-pyridyl]urea], the EC50 in test [1] was 219 nM; in test [2], 6610 nM; in test [3] it was 6610 nM; in test [4], 1040 nM; in test [5] it was 122 nM. The IC50 in test [6] came out at 9950 nM.

Regarding `CCOc1nc(C(F)(F)F)cc(N/C(=N/C#N)NCc2cc(C)c(-c3cn(C)nc3C(F)(F)F)nn2)c1C` [Compound 80, 2-cyano-1-[2-ethoxy-3-methyl-6-(trifluoromethyl)-4-pyridyl]-3-[[5-methyl-6-[1-methyl-3-(trifluoromethyl)pyrazol-4-yl]pyridazin-3-yl]methyl]guanidine], the EC50 in test [1] is 13 nM; in test [2] it was at least 19800 nM; in test [3], 6610 nM; in test [4], 45 nM; in test [5], 3 nM. Further, the IC50 in test [6] is 239 nM.

Consider `COCC(C)Oc1cc(NC(=O)NCc2cc(C)c(-c3cn(C)nc3C(F)(F)F)nn2)cc(C(F)(F)F)n1` (stereo not drawn) [Compound 41, 1-[2-(2-methoxy-1-methyl-ethoxy)-6-(trifluoromethyl)-4-pyridyl]-3-[[5-methyl-6-[1-methyl-3-(trifluoromethyl)pyrazol-4-yl]pyridazin-3-yl]methyl]urea], for which the EC50 in test [1] was 101 nM; in test [2], at least 19800 nM; in test [3], at least 19800 nM; in test [4] it was 542 nM; in test [5], 48.9 nM. For the same compound, in test [6], the IC50 turned out to be 597 nM.

As for `CCOc1cc(NC(=O)NC(C)c2cc(C)c(-c3cn(C)nc3C(F)(F)F)nn2)cc(Cl)n1` (stereo not drawn) [Compound 3, 1-(2-chloro-6-ethoxy-4-pyridyl)-3-[1-[5-methyl-6-[1-methyl-3-(trifluoromethyl)pyrazol-4-yl]pyridazin-3-yl]ethyl]urea], the EC50 is 26 nM in test [1]; at least 19800 nM in test [2]; 6610 nM in test [3]; 115 nM in test [4]; 22 nM in test [5]. Further, the IC50 in test [6] came to 478 nM.

In the case of `CN(C)Cc1cc(CNC(=O)Nc2cc(Cl)nc(OCC(F)F)c2)nnc1-c1cn(C)nc1C(F)(F)F` [Compound 65, 1-[2-chloro-6-(2,2-difluoroethoxy)-4-pyridyl]-3-[[5-(dimethylamino-methyl)-6-[1-methyl-3-(trifluoromethyl)pyrazol-4-yl]pyridazin-3-yl]methyl]urea], the EC50 is 1620 nM in test [1]; 6610 nM in test [2]; at least 19800 nM in test [3]; 1470 nM in test [4]; 2630 nM in test [5]. For the same compound, in test [6], the IC50 amounted to 10000 nM.

On to `Cc1cc(CNC(=O)Nc2cc(Cl)nc(OCC(F)F)c2)nnc1N1CCC(S(C)(=O)=O)C1` (stereo not drawn) [Compound 91, 1-[2-chloro-6-(2,2-difluoroethoxy)-4-pyridyl]-3-[[5-methyl-6-(3-methylsulfonyl-pyrrolidin-1-yl)pyridazin-3-yl]methyl]urea], for which the EC50 is 529 nM in test [1]; at least 19800 nM in test [2]; at least 19800 nM in test [3]; 919 nM in test [4]; 1250 nM in test [5]. The IC50 in test [6] was 2840 nM.

As for `CCOc1nc(C#N)cc(NC(=O)NCc2cc(C)c(-c3cn(C)nc3C(F)(F)F)nn2)c1C` [Compound 57, 1-(6-cyano-2-ethoxy-3-methyl-4-pyridyl)-3-[[5-methyl-6-[1-methyl-3-(trifluoromethyl)pyrazol-4-yl]pyridazin-3-yl]methyl]urea], the EC50 in test [1] is 7.6 nM; in test [2], 6610 nM; in test [3], 4620 nM; in test [4], 24.4 nM; in test [5] it was 0.9 nM. The IC50 in test [6] was found to be 17.3 nM.

As to `CCOc1cc(NC(=O)NCc2cc(C)c(-c3cn(C)nc3C)nn2)cc(Cl)n1` [Compound 68], the EC50 is 25.4 nM in test [1], at least 19800 nM in test [2], 111 nM in test [4] and 153 nM in test [5]. Moreover, in test [6], the IC50 was 3460 nM.

`Cc1cc(CNC(=O)Nc2cc(C(F)(F)F)nc(OCCO)c2C)nnc1-c1cn(C)nc1C(F)(F)F` [Compound 73, 1-[2-(2-hydroxyethoxy)-3-methyl-6-(trifluoromethyl)-4-pyridyl]-3-[[5-methyl-6-[1-methyl-3-(trifluoromethyl)pyrazol-4-yl]pyridazin-3-yl]methyl]urea]: the EC50 in test [1] is 84 nM; in test [2] it was at least 19800 nM; in test [4] it was 160 nM; in test [5] it was 51 nM. Moreover, in test [6], the IC50 turned out to be 256 nM.

As for `CCOc1cc(NC(=O)NCc2cc(C)c(N3C[C@@H](C)O[C@@H](C)C3)nn2)cc(C)n1` [Compound 93, 1-[[6-[(2R,6S)-2,6-dimethyl-morpholin-4-yl]-5-methyl-pyridazin-3-yl]methyl]-3-(2-ethoxy-6-methyl-4-pyridyl)urca], the EC50 in test [1] turned out to be 1050 nM; in test [3], 6610 nM; in test [4], 2170 nM; in test [5] it was 753 nM. Besides, the IC50 in test [6] stood at 2200 nM.

Turning to `CCOc1ncc(NC(=O)NCc2cc(C)c(N3CC(C)OC(C)C3)nn2)cc1C(F)(F)F` (stereo not drawn) [Compound 85, 1-[[6-(2,6-dimethyl-morpholin-4-yl)-5-methyl-pyridazin-3-yl]methyl]-3-[6-ethoxy-5-(trifluoromethyl)-3-pyridyl]urca], the EC50 is 487 nM in test [1], 3560 nM in test [4] and 427 nM in test [5]. Also, in test [6], the IC50 was determined as 9950 nM.
